Results taken from PubChem BioAssay AID2060622 (Molecular Pharmacology Branch, DTP, NCI, 2025).
“And” between values parts separate entries of the source, which are not always exact repeats. Equal entries are not always repeated.

System: 242566-281-R-J2-PDC complex spheroid viability
Assay: Anticancer human tumor 242566-281-R-J2-PDC patient-derived pancreatic carcinoma cell line growth inhibition [CLK]
Conditions: for viability, T/C: stronger effect = lower value; active means viability on the fitted dose curve at most 10% of control; inactive means the rest
How it was run: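 Multi-cell-type spheroids combined patient-derived tumor cells with HUVEC endothelial cells and human mesenchymal stem cells. Paired agents were dosed in half-log steps down from about clinical Cmax, or from 10 microM where Cmax was unknown.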

[1] = curve of first compound, second compound 0.0316 µM
[2] = curve of first compound, second compound 0.1 µM
[3] = curve of first compound, second compound 0.316 µM
[4] = curve of first compound, second compound 1 µM
[5] = curve of first compound, second compound 3.16 µM
[6] = curve of first compound, second compound 10 µM
[7] = second compound 0.0316 µM, first compound 0.0316 µM
[8] = second compound 0.0316 µM, first compound 0.1 µM
[9] = second compound 0.0316 µM, first compound 0.316 µM
[10] = second compound 0.0316 µM, first compound 1 µM
[11] = second compound 0.0316 µM, first compound 3.16 µM
[12] = second compound 0.0316 µM, first compound 10 µM
[13] = second compound 0.1 µM, first compound 0.0316 µM
[14] = second compound 0.1 µM, first compound 0.1 µM
[15] = second compound 0.1 µM, first compound 0.316 µM
[16] = second compound 0.1 µM, first compound 1 µM
[17] = second compound 0.1 µM, first compound 3.16 µM
[18] = second compound 0.1 µM, first compound 10 µM
[19] = second compound 0.316 µM, first compound 0.0316 µM
[20] = second compound 0.316 µM, first compound 0.1 µM
[21] = second compound 0.316 µM, first compound 0.316 µM
[22] = second compound 0.316 µM, first compound 1 µM
[23] = second compound 0.316 µM, first compound 3.16 µM
[24] = second compound 0.316 µM, first compound 10 µM
[25] = second compound 1 µM, first compound 0.0316 µM
[26] = second compound 1 µM, first compound 0.1 µM
[27] = second compound 1 µM, first compound 0.316 µM
[28] = second compound 1 µM, first compound 1 µM
[29] = second compound 1 µM, first compound 3.16 µM
[30] = second compound 1 µM, first compound 10 µM
[31] = second compound 3.16 µM, first compound 0.0316 µM
[32] = second compound 3.16 µM, first compound 0.1 µM
[33] = second compound 3.16 µM, first compound 0.316 µM
[34] = second compound 3.16 µM, first compound 1 µM
[35] = second compound 3.16 µM, first compound 3.16 µM
[36] = second compound 3.16 µM, first compound 10 µM
[37] = second compound 10 µM, first compound 0.0316 µM
[38] = second compound 10 µM, first compound 0.1 µM
[39] = second compound 10 µM, first compound 0.316 µM
[40] = second compound 10 µM, first compound 1 µM
[41] = second compound 10 µM, first compound 3.16 µM
[42] = second compound 10 µM, first compound 10 µM
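Further: spheroids exposed to compounds for 7 days before readout.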
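Wherever viability, T/C is given: 100% = DMSO vehicle control wells.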

C#Cc1c(F)ccc2cc(O)cc(-c3ncc4c(N5CC6CCC(C5)N6)nc(OCC56CCCN5CC(F)C6)nc4c3F)c12 (configuration not stated) + CNC(=O)c1ccc(Nc2nc(OC3CCCC3)c3c(-c4ccc5nc(C)oc5c4)c[nH]c3n2)c(OC)c1
active: viability, T/C [36] 7.39% | viability, T/C [41] 11.1% | viability, T/C [42] 6.78%
inactive: viability, T/C [7] 106% | viability, T/C [8] 89.4% | viability, T/C [9] 68.1% | viability, T/C [10] 60.8% | viability, T/C [11] 52.1% | viability, T/C [12] 45.6% | viability, T/C [13] 109% | viability, T/C [14] 92.9% | viability, T/C [15] 67.6% | viability, T/C [16] 55.3% | viability, T/C [17] 42.2% | viability, T/C [18] 32.9% | viability, T/C [19] 81.7% | viability, T/C [20] 66.7% | viability, T/C [21] 52.2% | viability, T/C [22] 39.3% | viability, T/C [23] 36.5% | viability, T/C [24] 22.3% | viability, T/C [25] 48.4% | viability, T/C [26] 29% | viability, T/C [27] 22.9% | viability, T/C [28] 16.5% | viability, T/C [29] 13.4% | viability, T/C [30] 15.5% | viability, T/C [31] 20.3% | viability, T/C [32] 17.5% | viability, T/C [33] 15.9% | viability, T/C [34] 11.8% | viability, T/C [35] 10.9% | viability, T/C [37] 17.5% | viability, T/C [38] 14.5% | viability, T/C [39] 13.2% | viability, T/C [40] 10.8%
434 nM: IC50 [3]
4270 nM: IC50 [1]
1430 nM: IC50 [2]
< 31.6 nM: IC50 [4] | IC50 [5] | IC50 [6]

C=C(F)C(=O)N1CCN(c2nc(OCC3CCCN3C)nc3c2CCN(c2cccc4cccc(Cl)c24)C3)CC1CC#N (configuration not stated)
inactive: viability, T/C (compound 0.0316 µM) 88.1% and 109% | viability, T/C (compound 0.1 µM) 81.2% and 96.7% | viability, T/C (compound 0.316 µM) 70.4% and 103% | viability, T/C (compound 1 µM) 116% and 111% | viability, T/C (compound 3.16 µM) 103% and 83%
active: viability, T/C (compound 10 µM) 0.27% and 0.16%
5350 nM and 5000 nM: IC50 (curve of compound)

Cn1ncnc1[C@H]1c2n[nH]c(=O)c3cc(F)cc(c23)N[C@@H]1c1ccc(F)cc1 + CNC(=O)c1ccc(Nc2nc(OC3CCCC3)c3c(-c4ccc5nc(C)oc5c4)c[nH]c3n2)c(OC)c1
31.1 nM: IC50 [5]
inactive: viability, T/C (second compound 0.0316 µM, first compound 0.000316 µM) 126% | viability, T/C (second compound 0.0316 µM, first compound 0.001 µM) 105% | viability, T/C (second compound 0.0316 µM, first compound 0.00316 µM) 104% | viability, T/C (second compound 0.0316 µM, first compound 0.01 µM) 127% | viability, T/C [7] 91.8% | viability, T/C [8] 98.8% | viability, T/C (second compound 0.1 µM, first compound 0.000316 µM) 100% | viability, T/C (second compound 0.1 µM, first compound 0.001 µM) 123% | viability, T/C (second compound 0.1 µM, first compound 0.00316 µM) 84.1% | viability, T/C (second compound 0.1 µM, first compound 0.01 µM) 92.3% | viability, T/C [13] 98.5% | viability, T/C [14] 87.8% | viability, T/C (second compound 0.316 µM, first compound 0.000316 µM) 104% | viability, T/C (second compound 0.316 µM, first compound 0.001 µM) 86.3% | viability, T/C (second compound 0.316 µM, first compound 0.00316 µM) 85.1% | viability, T/C (second compound 0.316 µM, first compound 0.01 µM) 89.9% | viability, T/C [19] 79.9% | viability, T/C [20] 76.5% | viability, T/C (second compound 1 µM, first compound 0.000316 µM) 70.9% | viability, T/C (second compound 1 µM, first compound 0.001 µM) 67.2% | viability, T/C (second compound 1 µM, first compound 0.00316 µM) 62.5% | viability, T/C (second compound 1 µM, first compound 0.01 µM) 64.8% | viability, T/C [25] 56.1% | viability, T/C [26] 52.4% | viability, T/C (second compound 3.16 µM, first compound 0.000316 µM) 55.5% | viability, T/C (second compound 3.16 µM, first compound 0.001 µM) 52% | viability, T/C (second compound 3.16 µM, first compound 0.00316 µM) 49.6% | viability, T/C (second compound 3.16 µM, first compound 0.01 µM) 47.6% | viability, T/C [31] 56.2% | viability, T/C [32] 47% | viability, T/C (second compound 10 µM, first compound 0.000316 µM) 50.2% | viability, T/C (second compound 10 µM, first compound 0.001 µM) 53.8% | viability, T/C (second compound 10 µM, first compound 0.00316 µM) 45.2% | viability, T/C (second compound 10 µM, first compound 0.01 µM) 49.8% | viability, T/C [37] 50.3% | viability, T/C [38] 49.1%
2.02 nM: IC50 [6]
> 100 nM: IC50 [1] | IC50 [2] | IC50 [3] | IC50 [4]

Nc1ccn(C2OC(CO)C(O)C2(F)F)c(=O)n1 (configuration not stated) + CNC(=O)c1ccc(Nc2nc(OC3CCCC3)c3c(-c4ccc5nc(C)oc5c4)c[nH]c3n2)c(OC)c1
84.9 nM: IC50 [1]
115 nM: IC50 [2]
32.1 nM: IC50 [5]
inactive: viability, T/C [7] 91.5% | viability, T/C [8] 42.9% | viability, T/C [9] 21.2% | viability, T/C [10] 12.3% | viability, T/C [13] 91.1% | viability, T/C [14] 53.3% | viability, T/C [15] 26.7% | viability, T/C [16] 15.5% | viability, T/C [17] 12.8% | viability, T/C [18] 10% | viability, T/C [19] 78% | viability, T/C [20] 40.5% | viability, T/C [21] 25.7% | viability, T/C [22] 14.8% | viability, T/C [23] 12.8% | viability, T/C [25] 62.8% | viability, T/C [26] 37.8% | viability, T/C [27] 19.3% | viability, T/C [28] 11.9% | viability, T/C [31] 50.1% | viability, T/C [32] 36.2% | viability, T/C [33] 16.3% | viability, T/C [37] 45.8% | viability, T/C [38] 34.7% | viability, T/C [39] 19.7% | viability, T/C [40] 9.76%
active: viability, T/C [11] 9.35% | viability, T/C [12] 9.34% | viability, T/C [24] 8.22% | viability, T/C [29] 9.22% | viability, T/C [30] 6.78% | viability, T/C [34] 10.7% | viability, T/C [35] 7.99% | viability, T/C [36] 6.76% | viability, T/C [41] 8.5% | viability, T/C [42] 7.44%
< 31.6 nM: IC50 [6]
56.7 nM: IC50 [4]
77.1 nM: IC50 [3]

CNC(=O)c1ccc(Nc2nc(OC3CCCC3)c3c(-c4ccc5nc(C)oc5c4)c[nH]c3n2)c(OC)c1
inactive: viability, T/C (compound 1 µM) 69.1% [middle of 12 runs] | viability, T/C (compound 3.16 µM) 61% [middle of 12 runs] | viability, T/C (compound 10 µM) 55.9% [middle of 12 runs]
> 10000 nM and 2630 nM: IC50 (compound alone, run of 08/01/2023)
